Laboratory results from the supplement of paper PMC11061612.

Experiments:
NB12 (Neuroblastoma) [1] = assay: combination Emax (second highest fraction inhibited in the dose matrix, 72 h); higher = more inhibition; extreme values may be limits of the assay
Method in brief: (§1)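 After 24 hours at 37°C and 5% CO2 in 1536-well plates, cells in DMEM/F12 or RPMI plus 10% FBS received two-drug dose matrices for 72 hours. Viability came from CellTiter-Glo 2.0 luminescence and was scaled as inhibition, anchored at 0 by vehicle wells and at 1 by blank wells. Combination Emax is taken as the second-highest inhibition in the matrix, and Bliss excess as the observed combination effect less EA + EB − EA·EB, with EA and EB the single-agent effects.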

SK-MEL-2 (Melanoma) [2] = assay: as above
Method in brief: as §1

[3] = tested on: REH (B-Lymphoblastic Leukemia); assay: Bliss excess, mean over the matrix (fraction); higher = more synergy
Method in brief: as §1

[4] = tested on: NCI-H2342 (Lung Adenocarcinoma); assay: as above
Method in brief: as §1

[5] = tested on: SU-DHL-10 (B-Cell Non-Hodgkin's Lymphoma); assay: as above
Method in brief: as §1

[6] = tested on: PC-3_[JPC-3] (Lung Adenocarcinoma); assay: as above
Method in brief: as §1

NB12 (Neuroblastoma) [7] = assay: as above
Method in brief: as §1

[8] = tested on: 23132-87 (Gastric Carcinoma); assay: as above
Method in brief: as §1

SK-MEL-2 (Melanoma) [9] = assay: as above
Method in brief: as §1

[10] = tested on: PANC-03-27 (Pancreatic Carcinoma); assay: as above
Method in brief: as §1
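Wherever Bliss excess, mean over the matrix is given: after 72 h of two-drug dosing.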

COc1nnc2ccc(N3CCC(c4ccc(OCCN5CCN(C)C(=O)[C@H]5C)cc4)CC3)nn12 [AZD5153] + CC1(C)CCC(CN2CCN(c3ccc(C(=O)NS(=O)(=O)c4ccc(NCC5CCOCC5)c([N+](=O)[O-])c4)c(Oc4cnc5[nH]ccc5c4)c3)CC2)=C(c2ccc(Cl)cc2)C1 [Venetoclax] (first compound max 1 µM, 7x7, partner max 1 µM)
combination Emax (NB12 (Neuroblastoma) [1]): 0.971 | combination Emax (SK-MEL-2 (Melanoma) [2]): 0.519 | Bliss excess [3]: -0.136 | Bliss excess [4]: -0.0384 | Bliss excess [5]: -0.0221 | Bliss excess [6]: -0.111 | Bliss excess (NB12 (Neuroblastoma) [7]): 0.0928 | Bliss excess [8]: -0.0697 | Bliss excess (SK-MEL-2 (Melanoma) [9]): -0.0035 | Bliss excess [10]: -0.0422

COc1nnc2ccc(N3CCC(c4ccc(OCCN5CCN(C)C(=O)[C@H]5C)cc4)CC3)nn12 [AZD5153] + CCN(CCO)CCCOc1ccc2c(Nc3cc(CC(=O)Nc4cccc(F)c4)[nH]n3)ncnc2c1 [AZD2811] (first compound max 1 µM, 7x7, partner max 1 µM)
combination Emax (NB12 (Neuroblastoma) [1]): 0.937 | combination Emax (SK-MEL-2 (Melanoma) [2]): 0.485 | Bliss excess [3]: -0.0891 | Bliss excess [4]: -0.01 | Bliss excess [5]: -0.049 | Bliss excess [6]: -0.0306 | Bliss excess (NB12 (Neuroblastoma) [7]): 0.0269 | Bliss excess [8]: -0.0223 | Bliss excess (SK-MEL-2 (Melanoma) [9]): -0.0912 | Bliss excess [10]: -0.0487

COc1nnc2ccc(N3CCC(c4ccc(OCCN5CCN(C)C(=O)[C@H]5C)cc4)CC3)nn12 [AZD5153] + C[C@@H]1COCCN1C2=NC(=NC(=C2)C3(CC3)[S@](=N)(=O)C)C4=C5C=CNC5=NC=C4 [AZD6738] (first compound max 1 µM, 7x7, partner max 10 µM)
combination Emax (NB12 (Neuroblastoma) [1]): 0.958 | combination Emax (SK-MEL-2 (Melanoma) [2]): 0.693 | Bliss excess [3]: -0.0059 | Bliss excess [4]: 0.0133 | Bliss excess [5]: -0.038 | Bliss excess [6]: 0.0651 | Bliss excess (NB12 (Neuroblastoma) [7]): 0.0067 | Bliss excess [8]: 0.0394 | Bliss excess (SK-MEL-2 (Melanoma) [9]): 0.0037 | Bliss excess [10]: -0.091

COc1nnc2ccc(N3CCC(c4ccc(OCCN5CCN(C)C(=O)[C@H]5C)cc4)CC3)nn12 [AZD5153] + Cc1c2c(nn1C)CSCc1cc(n(C)n1)CSc1cc(c3ccccc3c1)OCCCc1c(C(=O)O)n(C)c3c-2c(Cl)ccc13 [AZD5991] (first compound max 1 µM, 7x7, partner max 1 µM)
combination Emax (NB12 (Neuroblastoma) [1]): 0.942 | combination Emax (SK-MEL-2 (Melanoma) [2]): 0.984 | Bliss excess [3]: -0.0621 | Bliss excess [4]: 0.0192 | Bliss excess [5]: -0.03 | Bliss excess [6]: -0.0149 | Bliss excess (NB12 (Neuroblastoma) [7]): 0.0267 | Bliss excess [8]: 0.0791 | Bliss excess (SK-MEL-2 (Melanoma) [9]): -0.0198 | Bliss excess [10]: -0.0183

COc1nnc2ccc(N3CCC(c4ccc(OCCN5CCN(C)C(=O)[C@H]5C)cc4)CC3)nn12 [AZD5153] + Cn1cnc2c(F)c(Nc3ccc(Br)cc3Cl)c(C(=O)NOCCO)cc21 [Selumetinib] (first compound max 1 µM, 7x7, partner max 10 µM)
combination Emax (NB12 (Neuroblastoma) [1]): 0.799 | combination Emax (SK-MEL-2 (Melanoma) [2]): 0.926 | Bliss excess [3]: -0.0495 | Bliss excess [4]: 0.0267 | Bliss excess [5]: 0.0107 | Bliss excess [6]: 0.0189 | Bliss excess (NB12 (Neuroblastoma) [7]): -0.0428 | Bliss excess [8]: -0.036 | Bliss excess (SK-MEL-2 (Melanoma) [9]): -0.0349 | Bliss excess [10]: 0.0131

NC1(C(=O)N[C@@H](CCO)c2ccc(Cl)cc2)CCN(c2ncnc3[nH]ccc23)CC1 [Capivasertib] + CC(=O)c1c(C)c2cnc(Nc3ccc(N4CCNCC4)cn3)nc2n(C2CCCC2)c1=O [Palbociclib] (first compound max 10 µM, 7x7, partner max 10 µM)
combination Emax (NB12 (Neuroblastoma) [1]): 0.399 | combination Emax (SK-MEL-2 (Melanoma) [2]): 0.0717 | Bliss excess [3]: 0.0022 | Bliss excess [4]: 0.0214 | Bliss excess [5]: 0.0478 | Bliss excess [6]: 0.002 | Bliss excess (NB12 (Neuroblastoma) [7]): 0.0139 | Bliss excess [8]: -0.0183 | Bliss excess (SK-MEL-2 (Melanoma) [9]): -0.0408 | Bliss excess [10]: -0.0187

NC1(C(=O)N[C@@H](CCO)c2ccc(Cl)cc2)CCN(c2ncnc3[nH]ccc23)CC1 [Capivasertib] + CC(C)n1c(=O)n(C)c2cnc3cc(F)c(-c4ccc(OCCCN5CCCCC5)nc4)cc3c21 [AZD1390] (first compound max 10 µM, 7x7, partner max 0.3 µM)
combination Emax (NB12 (Neuroblastoma) [1]): 0.504 | combination Emax (SK-MEL-2 (Melanoma) [2]): 0.176 | Bliss excess [3]: -0.135 | Bliss excess [4]: -0.0212 | Bliss excess [5]: 0.0402 | Bliss excess [6]: -0.0982 | Bliss excess (NB12 (Neuroblastoma) [7]): 0.0009 | Bliss excess [8]: -0.055 | Bliss excess (SK-MEL-2 (Melanoma) [9]): -0.0125 | Bliss excess [10]: 0.0162

NC1(C(=O)N[C@@H](CCO)c2ccc(Cl)cc2)CCN(c2ncnc3[nH]ccc23)CC1 [Capivasertib] + CCN(CCO)CCCOc1ccc2c(Nc3cc(CC(=O)Nc4cccc(F)c4)[nH]n3)ncnc2c1 [AZD2811] (first compound max 10 µM, 7x7, partner max 1 µM)
combination Emax (NB12 (Neuroblastoma) [1]): 0.783 | combination Emax (SK-MEL-2 (Melanoma) [2]): 0.0759 | Bliss excess [3]: -0.0591 | Bliss excess [4]: 0.0242 | Bliss excess [5]: -0.0466 | Bliss excess [6]: -0.0168 | Bliss excess (NB12 (Neuroblastoma) [7]): -0.0279 | Bliss excess [8]: 0.008 | Bliss excess (SK-MEL-2 (Melanoma) [9]): -0.0383 | Bliss excess [10]: -0.0068

NC1(C(=O)N[C@@H](CCO)c2ccc(Cl)cc2)CCN(c2ncnc3[nH]ccc23)CC1 [Capivasertib] + COc1nnc2ccc(N3CCC(c4ccc(OCCN5CCN(C)C(=O)[C@H]5C)cc4)CC3)nn12 [AZD5153] (first compound max 10 µM, 7x7, partner max 1 µM)
combination Emax (NB12 (Neuroblastoma) [1]): 0.985 | combination Emax (SK-MEL-2 (Melanoma) [2]): 0.578 | Bliss excess [3]: 0.0272 | Bliss excess [4]: 0.0361 | Bliss excess [5]: -0.027 | Bliss excess [6]: -0.0186 | Bliss excess (NB12 (Neuroblastoma) [7]): 0.0031 | Bliss excess [8]: 0.0623 | Bliss excess (SK-MEL-2 (Melanoma) [9]): -0.0015 | Bliss excess [10]: -0.007

NC1(C(=O)N[C@@H](CCO)c2ccc(Cl)cc2)CCN(c2ncnc3[nH]ccc23)CC1 [Capivasertib] + C[C@@H]1COCCN1C2=NC(=NC(=C2)C3(CC3)[S@](=N)(=O)C)C4=C5C=CNC5=NC=C4 [AZD6738] (first compound max 10 µM, 7x7, partner max 10 µM)
combination Emax (NB12 (Neuroblastoma) [1]): 0.738 | combination Emax (SK-MEL-2 (Melanoma) [2]): 0.152 | Bliss excess [3]: -0.0859 | Bliss excess [4]: -0.0709 | Bliss excess [5]: -0.0359 | Bliss excess [6]: -0.0356 | Bliss excess (NB12 (Neuroblastoma) [7]): -0.0449 | Bliss excess [8]: 0.0024 | Bliss excess (SK-MEL-2 (Melanoma) [9]): -0.0335 | Bliss excess [10]: -0.0537

NC1(C(=O)N[C@@H](CCO)c2ccc(Cl)cc2)CCN(c2ncnc3[nH]ccc23)CC1 [Capivasertib] + Cn1cnc2c(F)c(Nc3ccc(Br)cc3Cl)c(C(=O)NOCCO)cc21 [Selumetinib] (first compound max 10 µM, 7x7, partner max 10 µM)
combination Emax (NB12 (Neuroblastoma) [1]): 0.504 | combination Emax (SK-MEL-2 (Melanoma) [2]): 0.843 | Bliss excess [3]: -0.005 | Bliss excess [4]: 0.0891 | Bliss excess [5]: 0.0269 | Bliss excess [6]: 0.0268 | Bliss excess (NB12 (Neuroblastoma) [7]): 0.0154 | Bliss excess [8]: 0.0687 | Bliss excess (SK-MEL-2 (Melanoma) [9]): 0.0662 | Bliss excess [10]: 0.0728

Cc1nc(Nc2ncc(C(=O)Nc3c(C)cccc3Cl)s2)cc(N2CCN(CCO)CC2)n1 [Dasatinib] + CC(=O)Nc1cccc(-n2c(=O)n(C3CC3)c(=O)c3c(Nc4ccc(I)cc4F)n(C)c(=O)c(C)c32)c1 [Trametinib] (first compound max 2 µM, 7x7, partner max 1 µM)
combination Emax (NB12 (Neuroblastoma) [1]): 0.266 | combination Emax (SK-MEL-2 (Melanoma) [2]): 0.94 | Bliss excess [3]: -0.0421 | Bliss excess [4]: -0.0578 | Bliss excess [5]: 0.0745 | Bliss excess [6]: -0.0708 | Bliss excess (NB12 (Neuroblastoma) [7]): 0.0319 | Bliss excess [8]: -0.045 | Bliss excess (SK-MEL-2 (Melanoma) [9]): -0.0571 | Bliss excess [10]: 0.0178

COc1cc2ncnc(Nc3ccc(F)c(Cl)c3)c2cc1OCCCN1CCOCC1 [Gefitinib] + CC(C)n1c(=O)n(C)c2cnc3cc(F)c(-c4ccc(OCCCN5CCCCC5)nc4)cc3c21 [AZD1390] (first compound max 10 µM, 7x7, partner max 0.3 µM)
combination Emax (NB12 (Neuroblastoma) [1]): 0.139 | combination Emax (SK-MEL-2 (Melanoma) [2]): 0.169 | Bliss excess [3]: -0.0498 | Bliss excess [4]: -0.052 | Bliss excess [5]: -0.0254 | Bliss excess [6]: -0.03 | Bliss excess (NB12 (Neuroblastoma) [7]): -0.0668 | Bliss excess [8]: -0.025 | Bliss excess (SK-MEL-2 (Melanoma) [9]): -0.0348 | Bliss excess [10]: -0.0223

CS(=O)(=O)CCNCc1ccc(-c2ccc3ncnc(Nc4ccc(OCc5cccc(F)c5)c(Cl)c4)c3c2)o1 [Lapatinib] + C[C@@H](Oc1cc(-c2cnn(C3CCNCC3)c2)cnc1N)c1c(Cl)ccc(F)c1Cl [Crizotinib] (first compound max 10 µM, 7x7, partner max 10 µM)
combination Emax (NB12 (Neuroblastoma) [1]): 0.843 | combination Emax (SK-MEL-2 (Melanoma) [2]): 0.62 | Bliss excess [3]: -0.0347 | Bliss excess [4]: -0.0006 | Bliss excess [5]: -0.0087 | Bliss excess [6]: -0.0824 | Bliss excess (NB12 (Neuroblastoma) [7]): -0.0622 | Bliss excess [8]: 0.0195 | Bliss excess (SK-MEL-2 (Melanoma) [9]): -0.0232 | Bliss excess [10]: -0.0111

CC(=O)c1c(C)c2cnc(Nc3ccc(N4CCNCC4)cn3)nc2n(C2CCCC2)c1=O [Palbociclib] + CC1(C)CCC(CN2CCN(c3ccc(C(=O)NS(=O)(=O)c4ccc(NCC5CCOCC5)c([N+](=O)[O-])c4)c(Oc4cnc5[nH]ccc5c4)c3)CC2)=C(c2ccc(Cl)cc2)C1 [Venetoclax] (first compound max 10 µM, 7x7, partner max 1 µM)
combination Emax (NB12 (Neuroblastoma) [1]): 0.614 | combination Emax (SK-MEL-2 (Melanoma) [2]): 0.11 | Bliss excess [3]: -0.0446 | Bliss excess [4]: -0.0564 | Bliss excess [5]: -0.0873 | Bliss excess [6]: -0.0487 | Bliss excess (NB12 (Neuroblastoma) [7]): 0.0237 | Bliss excess [8]: -0.0416 | Bliss excess (SK-MEL-2 (Melanoma) [9]): -0.0492 | Bliss excess [10]: -0.0545

CC(=O)c1c(C)c2cnc(Nc3ccc(N4CCNCC4)cn3)nc2n(C2CCCC2)c1=O [Palbociclib] + Cc1c2c(nn1C)CSCc1cc(n(C)n1)CSc1cc(c3ccccc3c1)OCCCc1c(C(=O)O)n(C)c3c-2c(Cl)ccc13 [AZD5991] (first compound max 10 µM, 7x7, partner max 1 µM)
combination Emax (NB12 (Neuroblastoma) [1]): 0.357 | combination Emax (SK-MEL-2 (Melanoma) [2]): 0.905 | Bliss excess [3]: -0.0213 | Bliss excess [4]: -0.0063 | Bliss excess [5]: -0.0199 | Bliss excess [6]: -0.0377 | Bliss excess (NB12 (Neuroblastoma) [7]): 0.0159 | Bliss excess [8]: -0.198 | Bliss excess (SK-MEL-2 (Melanoma) [9]): -0.045 | Bliss excess [10]: -0.0242
